Experimental data published in patent US10201558B2, “Compositions of selenoorganic compounds and methods of use thereof” (Alltech, Inc., priority 2014, dated 2019).
“Also recorded” adds a separate entry of the source.

How the values were obtained:
Neprilysin = assay: Western blot of Neprilysin in APP/PS1 mouse brains; format: in vivo; conditions: APP/PS1 mice, Compound C diet vs control diet
Description: Male APPΔNLh/ΔNLh×PS1P246 L/246 L knock-in model mice of Alzheimer's disease (abbreviated APP/PS1) were genotyped using standard primers for human APP (Amyloid Precursor Protein) and human PS1 (PSEN1). These APP/PS1 mice starting at the age of 6 months, were fed either a control diet containing normal levels of selenium (0.3 ppm from plant and inorganic selenium salt sources) or an experimental diet containing Compound C (the control diet to which was added 1 ppm Se from Compound C) for 6 months. […]
Frozen hemispheres of control- and Compound C-treated APP/PS1 mice were weighed and homogenized in PBS buffer, and then subsequently extracted with RIPA buffer (Sigma) containing complete proteinase and phosphatase inhibitors (Fisher Scientific). Protein levels in the samples were determined by micro-BCA protein analysis according to the manufacturer's protocol. […] Positive signals on the membrane blots were detected using Amersham's enhanced chemiluminescence Western Blotting Prime Detection reagents (GE healthcare Lifescience, Pittsburgh, Pa.). Images of these luminescence signals on the membrane blots were captured using the LI-COR Odyssey Fc Image system (Lincoln, Nebr.). Protein band densities in Western blots were determined using NIH Image J software, and then normalized by Actb levels in each samples to obtain the protein levels.

APOE = assay: QRT-PCR of APOE mRNA in IMR-32 cells (normal, control KD, FOXO4 KD); format: cell-based, human; conditions: 24 hours
Description: (§1) IMR-32 cells were cultured on 12-well plates for 24 hours and then incubated with FOXO4 siRNA lentiviruses (SC-29650V, Santa Cruz) or control siRNA lentiviruses (sc-108080, Santa Cruz) in the presence of Polybrene (5 μg/ml, Santa Cruz) for 24 hours according to the manufacturer's protocol. These lentiviral siRNA-transfected cells were amplified in normal media for 3 days and then incubated with puromycin for 9-14 days to obtain the stable Control KD (stably transfected with the control siRNAs) and FOXO4KD (stably transfected with Foxo4 siRNAs) cells. These control and Foxo4 KD cells were subjected to cell survival, mitochondrial potential and RNA analysis.
(§2) Human IMR-32 cells were seeded on gelatinized 6-well (6.5×10^5 cells/well) or 24-well (1.3×10^5 cells/well) plates. Cells were treated with control (0 ppb) or various compounds for 6 hours or 24 hours. Total RNA from these cells was isolated using Trizol (Invitrogen) according to the manufacturer's protocol, and then incubated with DNase I to remove any potential contaminated genomic DNA. Then RNA samples were subjected to real-time PCR analysis using the Applied-Bioscience's RT kit and predesigned Taqman probes (Invitrogen), as described previously (Lan et al EMBO J 2003). The mRNA levels of UCP1, UCP2, UCP3, SLC25A27 (UCP4), SLC25A14 (UCP5), PSEN1, Nicastrin, GSK3B, MAPK11-14, PPARG, APOE, RCAN1, RCAN1.1, G6PC, INSR, IGF1R and FOXO4 were measured. Three to six samples were analyzed in each treatment group. Data were normalized by Actin B (ACTB) or Glyceraldehyde Phosphate Dehydrogenase (GAPDH) mRNA levels in each sample and are presented as mean±SEM of 3-6 samples.
(§3) To explore this possibility, IMR-32 cells were treated with 150 ppb Compound C, Compound D or Compound E (150 ppb) for 6 hours and 24 hours, and then subjected to Western blot and QRT-PCR analyses. […] Therefore, Compound C and Compound D are downregulators of PPARG in IMR-32 cells at both mRNA and protein levels. […]

PPARG = assay: QRT-PCR of PPARG mRNA in IMR-32 cells (normal, control KD, FOXO4 KD); format: cell-based, human
Description: as §1, §2, §3

IGF1R = assay: QRT-PCR of IGF1R mRNA in IMR-32 cells; format: cell-based, human; conditions: 75 ppb and 150 ppb, 24 hours
Description: as §2
To examine whether or not Compound C can regulate INSR/IGF1R signaling in IMR-32 cells, QRT-PCR analysis was performed to measure INSR and IGF1R mRNA levels. […] Mean±SEM, n=4. The * refers to a p value <0.05 when compared to the control group (0 ppb).

IMR-32 cells = assay: Cell viability assay (CellTiter96 AQueous One, OD490); format: cell-based, human; conditions: 150 ppb, 72 hours
Description: Cell viability in cultured IMR-32 cells was determined using Promega's CellTiter96® AQueous One Solution Cell Proliferation Assay kits, according to the manufacturer's protocol and instructions. In brief, IMR-32 cells were seeded on 96-well clear plates (VWR) at a density of 2×10^4 cells/well, and treated with control or compounds of the present invention for 24 hours, 28 hours, and/or 72 hours.
The cultured cells were then incubated with AQueous One solution (100 ul/per well) at 37° C. for 1 hour. The absorbance at OD490 nm in each sample was determined by a Bio-Tek microplate reader. Cell viability in cultured cells were determined by the subtraction of OD490 nm in cultured cells with the OD490 nm in plain culture media without seeding of cells (control). Eight samples per each treatment were examined for the above analysis.
Cell viability assays were performed on cells after treatment with various compounds (150 ppb selenium compounds and equal dilution of their sulfur analog) for 24 hours, and 72 hours.

[1] = tested on: phosphorylated FOXO3 in AML-12 cells; assay: Phosphorylated FOXO in AML-12 liver cells; format: cell-based, mouse; conditions: 150 ppb, 6 hours and 24 hours
Description: Expression of phosphorylated FOXO1/3/4 in a non-neuronal mouse AML-12 liver cell line was examined Tests were performed at the same time and under the same experimental conditions as the human IMR-32 cells.

`C[Se]C[C@H]1O[C@@H](n2cnc3c(N)ncnc32)C(O)C1O` (stereo in doubt) [Compound C, 5′-deoxy-5′-methylselenoadenosine] was tested, and the “Neprilysin protein levels in the brains” value (Neprilysin) was “increased; also recorded: elevated”, the “APOE mRNA expression” value (APOE; FOXO4KD cells, 75 ppb and 150 ppb) was “not significantly altered” and the “APOE mRNA levels” value (APOE; IMR-32 cells, 150 ppb) was “significantly decreased”. For the same molecule, the “APOE mRNA levels” value (APOE; control normal cells, 75 ppb and 150 ppb) was “attenuated”, the “PPARG mRNA expression” value (PPARG; FOXO4KD cells, 75 ppb and 150 ppb, 24 hours) was “not significantly altered” and the “PPARG mRNA levels” value (PPARG; IMR-32 cells, 150 ppb, 6 hours) was “significantly lower”. For the same molecule, the “PPARG mRNA levels” value (PPARG; control normal cells, 75 ppb and 150 ppb, 24 hours) was “attenuated”, the “IGF1R mRNA expression levels” value (IGF1R) was “downregulated” and the “cell viability (OD490)” value (IMR-32 cells) was “small, but significant increase”. The “phosphorylation of FOXO3” value [1] was “did not affect”.
